Measured values reported in US7812022B2 (GlaxoSmithKline LLC, priority 2004, dated 2010).

Assays:
ErbB2 or EGFR = molecular target: T1, ErbB2 or EGFR; experiment: ErbB family substrate phosphorylation enzyme assay (HTRF), Method A or Method B; type: biochemical; conditions: Method B: enzyme mix pre-incubated with compound 1 hour at 20° C., started with substrate mix
T1 construct: enzymes purified from a baculovirus expression system; Reagent production was conducted essentially as described in Brignola, P. S., et al, (2002) J. Biol. Chem. 277(2): 1576-1585
Method in brief: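 Baculovirus-expressed EGFR or ErbB2 (0.8 or 10 nM in enzyme mix) phosphorylates biotinylated Peptide C with 20 µM ATP and 0.8 µM peptide (substrate-mix levels), MnCl2, pH 7.5. Reaction ran 90 min at 20 °C with EDTA stop and HTRF anti-phosphotyrosine read. Method A: enzyme added last; Method B: 1 h enzyme–compound preincubation.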

[1] = tested on: BT474 and HN5 tumor cell lines; experiment: Methylene blue growth inhibition assay (cellular Method A); type: cell-based, Human; conditions: Homo sapiens, BT-474, 72 h, 3 days, read-out: Activity (Method): growth inhibition IC50 class
Method in brief: (§1)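 Colo205, BT474 and HN5 cells in DMEM/10% FBS (BT474 10,000, HN5 3,000 cells/well) treated next day with compound in DMEM, 0.3% final DMSO, for 3 days at 37° C. Biomass stained with methylene blue, solubilized, read at OD 620; IC50 interpolated by nonlinear regression from % inhibition versus vehicle.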

Colo205 tumor cell lines = experiment: Methylene blue growth inhibition assay (cellular Method A), Colo205; type: cell-based, Human; conditions: Homo sapiens, COLO 205, 72 h, 3 days, read-out: Activity (Method): growth inhibition IC50 class
Method in brief: as §1

Row | SMILES | IC50 [1] | IC50 (Colo205 tumor cell lines) | Activity (Method): pIC50 class against ErbB2 or EGFR (ErbB2 or EGFR)
1 | COc1ccc(-c2nn3ccccc3c2-c2ccnc(Nc3ccc4c(c3)CNCC4)n2)cc1NC(=O)c1c(F)cccc1F [Example 159, 2,6-Difluoro-N-(2-(methyloxy)-5-{3-[2-(1,2,3,4-tetrahydro-7-isoquinolinylamino)-4-pyrimidinyl]pyrazolo[1,5-a]pyridin-2-yl}phenyl)benzamide] | > 1000 nM | > 1000 nM | + (B) (no pIC50 measurement greater than 6 against either ErbB2 or EGFR)
2 | O=C(Nc1cccc(-c2nn3ccccc3c2-c2ccnc(Nc3ccc(OCCCS(=O)(=O)O)c(Cl)c3)n2)c1)c1c(F)cccc1F [Example 161, 3-{[2-Chloro-4-({4-[2-(3-{[(2,6-difluorophenyl)carbonyl]amino}-phenyl)pyrazolo[1,5-a]pyridin-3-yl]-2-pyrimidinyl}amino)phenyl]oxy}-1-propanesulfonic acid] | > 1000 nM | > 1000 nM | +++ (B) (at least one pIC50 measurement of greater than 7 against either ErbB2 or EGFR)
3 | COC(=O)CCCOc1ccc(Nc2nccc(-c3c(-c4cccc(NC(=O)c5c(F)cccc5F)c4)nn4ccccc34)n2)cc1Cl [Example 162, Methyl 4-{[2-chloro-4-({4-[2-(3-{[(2,6-difluorophenyl)carbonyl]-amino}phenyl)pyrazolo[1,5-a]pyridin-3-yl]-2-pyrimidinyl}amino)phenyl]oxy}-butanoate] | 100 to 1000 nM | 100 to 1000 nM | ++ (B) (at least one pIC50 measurement greater than 6 against either ErbB2 or EGFR but no measurement greater than pIC50 of 7)

The next lines start with results.

Row | IC50 [1] | IC50 (Colo205 tumor cell lines) | SMILES | Activity (Method): pIC50 class against ErbB2 or EGFR (ErbB2 or EGFR)
4 | < 100 nM | < 100 nM | O=C(Nc1cc(-c2nn3ccccc3c2-c2ccnc(Nc3ccc4c(c3)CNCC4)n2)ccc1F)c1c(F)cccc1F [Example 160, 2,6-Difluoro-N-(2-fluoro-5-{3-[2-(1,2,3,4-tetrahydro-7-isoquinolinylamino)-4-pyrimidinyl]pyrazolo[1,5-a]pyridin-2-yl}phenyl)benzamide] | +++ (B) (at least one pIC50 measurement of greater than 7 against either ErbB2 or EGFR)
5 | < 100 nM | > 1000 nM | COc1ccc(Nc2nccc(-c3c(-c4cccc(NC(=O)c5c(F)cccc5F)c4)nn4ccccc34)n2)cc1O [Example 166, 2,6-Difluoro-N-{3-[3-(2-{[3-hydroxy-4-(methyloxy)phenyl]amino}-4-pyrimidinyl)pyrazolo[1,5-a]pyridin-2-yl]phenyl}benzamide] | +++ (B) (at least one pIC50 measurement of greater than 7 against either ErbB2 or EGFR)
6 | < 100 nM | 100 to 1000 nM | COc1ccc(Nc2nccc(-c3c(-c4cccc(NC(=O)c5c(F)cccc5F)c4)nn4ccccc34)n2)cc1OCCN(C)C [Example 167, N-{3-[3-(2-{[3-{[2-(Dimethylamino)ethyl]oxy}-4-(methyloxy)phenyl]amino}-4-pyrimidinyl)pyrazolo[1,5-a]pyridin-2-yl]phenyl}-2,6-difluorobenzamide] | +++ (B) (at least one pIC50 measurement of greater than 7 against either ErbB2 or EGFR)
7 | < 100 nM | 100 to 1000 nM | NC1CCc2ccc(Nc3nccc(-c4c(-c5cccc(NC(=O)c6c(F)cccc6F)c5)nn5ccccc45)n3)cc2C1 (stereo not drawn) [Example 174, N-[3-(3-{2-[(7-Amino-5,6,7,8-tetrahydro-2-naphthalenyl)amino]-4-pyrimidinyl}pyrazolo[1,5-g]pyridin-2-yl)phenyl]-2,6-difluorobenzamidedifluorobenzamide] | +++ (B) (at least one pIC50 measurement of greater than 7 against either ErbB2 or EGFR)
8 | < 100 nM | 100 to 1000 nM | NC1Cc2ccc(Nc3nccc(-c4c(-c5cccc(NC(=O)c6c(F)cccc6F)c5)nn5ccccc45)n3)cc2C1 (stereo not drawn) [Example 177, N-[3-(3-{2-[(2-Amino-2,3-dihydro-1H-inden-5-yl)amino]-4-pyrimidinyl}pyrazolo[1,5-a]pyridin-2-yl)phenyl]-2,6-difluorobenzamide] | +++ (B) (at least one pIC50 measurement of greater than 7 against either ErbB2 or EGFR)
